Measured values from patent publication US12054478B2, “Compositions and methods for inhibiting phenyl triazole MLL1-WDR5 protein-protein interaction” (China Pharmaceutical University, priority 2018, dated 2024).

Assays:
[1] = system: H3K4 acetylation level (MLL1 catalytic activity in cells); experiment: Western-blot at cellular level, H3K4 acetylation (H3K4me1/2/3) levels; type: cell-based; conditions: Yes/No
Experimental: In addition, Western-blot experiments at cellular level were conducted with some of the compounds in the present disclosure, with results listed in Table 1 on whether some of the compounds in the present disclosure inhibited H3K4 acetylation levels.
The inhibition on MLL1 catalytic activities at the cellular level for some of the compounds was plotted in FIG. 2.

[2] = system: Hox and Meis-1 gene expression; experiment: RT-PCR at cellular level, Hox and Meis-1 gene expression; type: cell-based; conditions: Yes/No
female balb/c mice = conditions: 80 mg/kg intraperitoneal, 10 consecutive days
Experimental: In the meantime, subacute toxicity experiments were conducted to evaluate the safety of some of the compounds in the present disclosure in mouse.

[3] = system: K562 human chronic myeloid leukemia cells; experiment: Anti-proliferation on leukemia cells, K562; type: cell-based
Experimental: Anti-proliferation experiments were conducted with leukemia cells with some of the compounds in the present disclosure. Table 3 listed the results of evaluation of the anti-proliferation activities for some of the compounds from this present disclosure conducted with acute leukemia cells, wherein MV4-11 is human acute leukemia monocyte, Molm-13 is human acute myeloid leukemia cells, and K562 is human chronic myeloid leukemia cells.

[4] = biological target: MLL1-WDR5 protein-protein interactions (Homo sapiens, UniProt P61964); experiment: Inhibition of MLL1-WDR5 protein-protein interaction; type: binding; conditions: Table 1; read-out: MLL1-WDR5 PPI inhibition activity
[5] = system: Molm-13 human acute myeloid leukemia cells; experiment: Anti-proliferation on leukemia cells, Molm-13; type: cell-based; conditions: Molm-13 cells
Experimental: (§1) Anti-proliferation experiments were conducted with leukemia cells with some of the compounds in the present disclosure.

[6] = system: MV4-11 human acute leukemia monocyte; experiment: Anti-proliferation on leukemia cells, MV4-11; type: cell-based; conditions: MV-411 cells
Experimental: as §1

| GI50 [5] [µM] | GI50 [6] [µM] | Compound | Inhibition on H3K4 acetylation level [1] | Downregulation of Hox and Meis-1 expression [2] | Average body weight changes (female balb/c mice) | GI50 [3] [µM] | IC50 [4] [µM] | GI50 ([5]; Homo sapiens) [µM] | GI50 ([6]; Homo sapiens, MV4-11) [µM] |
| --- | --- | --- | --- | --- | --- | --- | --- | --- | --- |
|  |  | Cc1c(F)c(N)cc(C(=O)Nc2cc(-n3cc(C(=O)N4CCOCC4)nn3)ccc2N2CCN(C)CC2)c1Cl [Example 4] | Yes | Yes | slight body weight increase | 34.4 ± 0.9 |  |  |  |
| 15.4 ± 2.2 | 11.2 ± 1.3 | 5-amino-2-chloro-N-(5-(4-(4-(dimethylaminomethyl)benzyl)-1H-1,2,3-triazol-1-group)-2-(4-methylpiperazin-1-group group)phenyl)-4-fluoro-3-Methyl benzoyl [Example 18] | Yes | Yes |  |  | < 0.05 |  |  |
|  |  | Cc1c(F)c(N)cc(C(=O)Nc2c(N3CCN(C)CC3)ccc(-n3cc(C(=O)NCCN4CCOCC4)nn3)c2C)c1Cl [Example 22, 1-(3-(5-amino-2-chloro-4-fluoro-3-Methylbenzoylamino)-2-methyl-4-(4-methylpiperazin-1-group)phenyl)-N-(2-Morpholineethyl)-1H-1,2,3-triazol-4-formamide] |  |  | slight body weight increase | 10.9 ± 0.7 | < 0.01 | 11.2 ± 0.8 | 9.5 ± 0.4 |
|  |  | Cc1c(F)c(N)cc(C(=O)Nc2cc(-n3cc(NC(=O)CCCN)nn3)ccc2N2CCN(C)CC2)c1Cl [Example 16, 5-amino-N-(5-(4-(4-Aminobutyrylamino)-1H-1,2,3-triazol-1-group)-2-(4-methylpiperazin-1-group)phenyl)-2-chloro-4-fluoro-3-methyl benzoylamino] |  |  | slight body weight increase | 15 ± 0.8 | < 0.01 |  | 15.1 ± 0.9 |
|  |  | Cc1c(F)c(N)cc(C(=O)Nc2cc(-n3cc(C(=O)NC4CCN(C)CC4)nn3)ccc2N2CCN(C)CC2)c1Cl [Example 6, 1-(3-(5-Amino-2-chloro-4-fluoro-3-methylbenzoylamino)-4-(4-methylpiperazin-1-group)phenyl)-N-(1-methylpiperidin-4-group)-1H-1,2,3-triazole-4-carboxamide] |  |  | slight body weight increase | 10.4 ± 0.7 |  |  |  |
|  |  | COC(=O)c1cn(-c2ccc(N3CCN(C)CC3)c(NC(=O)c3cc(N)c(F)c(C)c3Cl)c2)nn1 [Example 1, 1-(3-(5-amino-2-chloro-4-fluoro-3-methylbenzoylamino)-4-(4-methylpiperazine-1-group)phenyl)-1H-1,2,3-methyl triazole-4-carboxylate] | Yes | Yes |  |  |  |  |  |
|  |  | Cc1c(F)c(N)cc(C(=O)Nc2cc(-c3ccc(N)cc3)ccc2N2CCN(C)CC2)c1Cl [DDO-2084, reference compound] | Yes | Yes |  | 50.5 ± 5.5 | 0.0887 ± 0.0049 |  | 17.7 ± 2.3 |
